Measured values as given in the supplement of paper PMC6045584.
± gives the standard deviation of the averaged measurements.

The test systems below were run with O=C(O)C1(C(=O)O)CCC1.[NH2-].[NH2-].[Pt+2] [CARBOPLATIN] (assay: surviving fraction relative to DMSO-only wells; higher = less growth inhibition). Details: 5 nM; exposure time: 5 days.
Procedure, shortened: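 A line counted only if its three screens reached replicate Pearson r >0.7 and median Z' >0.3. Tumour cells in log phase were seeded at 250–500 per well in 384-well plates and, after 24 hours, kept in continuous contact with inhibitors at 0.5, 1, 5, 10, 50, 100, 500 and 1000 nM for five days. Surviving fraction was taken from CellTiter-Glo luminescence relative to the median of DMSO-only wells.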

Row | Test System | surviving fraction
1 | A549 LUNG | 1.08 ± 0.02
2 | ASKA SYNOVIAL | 1.16 ± 0.088
3 | BT20 BREAST | 1.39 ± 0.49
4 | BT549 BREAST | 1.06 ± 0.081
5 | CADOES1 SOFT TISSUE | 0.934 ± 0.052
6 | CAL51 BREAST | 0.98 ± 0.018
7 | CAL72 BONE | 1.06 ± 0.035
8 | CAL120 BREAST | 1.02 ± 0.04
9 | CASKI CERVIX | 0.954 ± 0.043
10 | CCK81 LARGE INTESTINE | 0.835 ± 0.083
11 | CHLA90 AUTONOMIC GANGLIA | 0.923 ± 0.058
12 | CME SYNOVIAL | 1.4 ± 0.047
13 | COLO320DM LARGE INTESTINE | 1.1 ± 0.045
14 | DU4475 BREAST | 1.08 ± 0.23
15 | G292 BONE | 1.07 ± 0.044
16 | H23 LUNG | 1.07 ± 0.013
17 | HCC38 BREAST | 1.34 ± 0.44
18 | HCC78 LUNG | 1.2 ± 0.18
19 | HCC202 BREAST | 1.31 ± 0.09

Row | Test System | surviving fraction
20 | HCC1806 BREAST | 1.1 ± 0.15
21 | HMLE3 BREAST | 1.11 ± 0.06
22 | HMT3552 BREAST | 1.02 ± 0.032
23 | HOS BONE | 1.04 ± 0.03
24 | HOSMNG BONE | 1.03 ± 0.075
25 | HS57T BREAST | 1.09 ± 0.028
26 | HSSYII SYNOVIAL | 0.975 ± 0.023
27 | HT1080 SOFT TISSUE | 1.09 ± 0.051
28 | HU09 BONE | 1.17 ± 0.069
29 | HUO3N1 BONE | 1.13 ± 0.065
30 | JIMT1 BREAST | 0.999 ± 0.014
31 | LM7 BONE | 1.09 ± 0.076
32 | LNCAP PROSTATE | 0.981 ± 0.023
33 | MDAMB134 BREAST | 0.856 ± 0.18
34 | MDAMB157 BREAST | 1.02 ± 0.11
35 | MDAMB231 BREAST | 0.994 ± 0.036
36 | MDAMB361 BREAST | 0.808 ± 0.043
37 | MDAMB436 BREAST | 0.998 ± 0.15
38 | MDAMB468 BREAST | 1.07 ± 0.032

Same assay, conditions: 10 nM; exposure time: 5 days

Row | Test System | surviving fraction
39 | 22RV1 PROSTATE | 1.02 ± 0.036
40 | 93VU HEADNECK | 1.24 ± 0.21
41 | 143B BONE | 1.14 ± 0.097
42 | A549 LUNG | 1.03 ± 0.019
43 | ASKA SYNOVIAL | 1.17 ± 0.061
44 | BT20 BREAST | 1.24 ± 0.04
45 | BT549 BREAST | 1.05 ± 0.03
46 | CADOES1 SOFT TISSUE | 0.987 ± 0.15
47 | CAL51 BREAST | 0.996 ± 0.017
48 | CAL72 BONE | 1.06 ± 0.052
49 | CAL120 BREAST | 0.977 ± 0.027
50 | CASKI CERVIX | 0.93 ± 0.069
51 | CCK81 LARGE INTESTINE | 0.831 ± 0.093
52 | CHLA90 AUTONOMIC GANGLIA | 0.917 ± 0.045
53 | CME SYNOVIAL | 1.48 ± 0.061
54 | COLO320DM LARGE INTESTINE | 1.06 ± 0.059
55 | DU4475 BREAST | 1.04 ± 0.089
56 | G292 BONE | 1.05 ± 0.015
57 | H23 LUNG | 1.01 ± 0.03
58 | HCC38 BREAST | 1.15 ± 0.15
59 | HCC78 LUNG | 0.951 ± 0.25

Row | Test System | surviving fraction
60 | HCC202 BREAST | 1.07 ± 0.36
61 | HCC1806 BREAST | 1.2 ± 0.012
62 | HMLE3 BREAST | 1.18 ± 0.092
63 | HMT3552 BREAST | 1.03 ± 0.065
64 | HOS BONE | 1.04 ± 0.02
65 | HOSMNG BONE | 1.05 ± 0.036
66 | HS57T BREAST | 1.12 ± 0.029
67 | HSSYII SYNOVIAL | 0.963 ± 0.089
68 | HT1080 SOFT TISSUE | 1.09 ± 0.013
69 | HU09 BONE | 1.09 ± 0.021
70 | HUO3N1 BONE | 1.12 ± 0.046
71 | JIMT1 BREAST | 0.969 ± 0.015
72 | LM7 BONE | 1.05 ± 0.028
73 | LNCAP PROSTATE | 1.03 ± 0.086
74 | MDAMB134 BREAST | 0.837 ± 0.033
75 | MDAMB157 BREAST | 1.04 ± 0.066
76 | MDAMB231 BREAST | 1 ± 0.027
77 | MDAMB361 BREAST | 0.762 ± 0.029
78 | MDAMB436 BREAST | 0.924 ± 0.11
79 | MDAMB468 BREAST | 0.991 ± 0.046

Same assay, conditions: 50 nM; exposure time: 5 days

Row | Test System | surviving fraction
80 | 22RV1 PROSTATE | 1.06 ± 0.093
81 | 93VU HEADNECK | 1.27 ± 0.091
